Results as given in patent US9913816B2, “Method for applying metformin and sodium butyrate in K-ras mutation cancer treatment” (Johnpro Biotech Inc., priority 2013, dated 2018).

System: HCT116 cells
Conditions: 72 hours; final concentration 0.75 mM sodium butyrate, 2 mM metformin, alone or both in combination; FIG. 1
Description: The human colon cancer cell HCT116 (cell line with K-ras mutation) is cultured in the McCoy's 5A with 10% fetal bovine serum. When the HCT116 cells are cultured to the appropriate number, then the adherent HCT116 cells are suspended, and 2.5×10^5 HCT116 cells per well are seeded in a 6-wells dish. After incubated for 12 hours, sodium butyrate with a final concentration of 0.75 mM, metformin with a final concentration of 2 mM, and the pharmaceutical composition with final concentration of […] are respectively added to the 6-wells dish as above mentioned.
In this embodiment, the final concentration as mentioned means the concentration of respective substances after added in the medium for cell culture, and therefore the medium respectively contains 0.75 mM sodium butyrate, 2 mM metformin, or 0.75 mM sodium butyrate and 2 mM metformin.
After respectably added the above compounds to HCT116 cells, the 6-well dish is incubated in an incubator of 37° C. for 72 hours. After that, the medium and compounds in each well are sequentially removed, and each well is washed by Phosphate Buffered Saline (PBS), then the HCT116 cells are harvested, by treating trypsin-EDTA, for apoptosis analysis.
The apoptosis analysis is based on the Annexin V apoptosis detection kit (BD Pharmingen) for analysis the exposure of phosphatidylserine, and the protocol follows the accompanying manual. In brief, the treated HCT116 cells are washed three times with PBS, and then immediately stained with Annexin V/Propidium Iodide (PI). 1% fetal bovine serum albumin (BSA) is first added to the treated cells. After subsequently added 222.5 μl of binding buffer, 10 μl of PI and 2.5 μl of Annexin V-FITC are directly then added to stain the cells, followed by immediate incubation for 10 minutes at low temperature in the dark. The percentage of the apoptosis is calculated by the flow cytometry and FACSCalibur, the analysis software thereof.

CN(C)C(=N)N=C(N)N [metformin]
apoptotic rate of HCT116 cells: about 20%
improvement of apoptotic rate compared to the control group: about 15%

CCCC(=O)[O-].[Na+] [sodium butyrate]
apoptotic rate of HCT116 cells: about 20%
improvement of apoptotic rate compared to the control group: about 15%
